Data as given in patent publication US7229769B2, “Compositions and methods for detecting protease activity” (Illumina, Inc., priority 2005, dated 2007).
Residues, ends and D or L forms follow the SMILES beside them. *: point of attachment. Cbz = O=C(OCc1ccccc1)*; CH2F = FC*

Biological target: T1, Caspase-3 (Homo sapiens, UniProt P42574)
T1 sequence (P42574 29-175 limits assumed): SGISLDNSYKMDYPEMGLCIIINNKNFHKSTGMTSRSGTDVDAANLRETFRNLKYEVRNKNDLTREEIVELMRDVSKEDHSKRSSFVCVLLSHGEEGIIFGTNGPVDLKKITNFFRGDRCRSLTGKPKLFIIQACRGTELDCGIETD
T1 sequence (P42574 176-277 limits assumed): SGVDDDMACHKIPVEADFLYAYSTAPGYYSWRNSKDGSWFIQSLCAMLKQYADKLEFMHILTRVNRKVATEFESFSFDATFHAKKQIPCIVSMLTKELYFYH
Assay: Caspase-3 protease assay with protein-DNA conjugate substrate, streptavidin extraction, BeadArray detection; inhibition analysis
Type: biochemical
Conditions: end point assays, various concentrations of inhibitor vs. absence of inhibitor, FIG. 10
Method: Caspase-3 protease activity was carried out as follows. Briefly, the caspase-3 substrate included a protein moiety (peptide) having a caspase-3 amino acid recognition sequence. The protein moiety was attached at its amino terminus to a FAM-labeled DNA moiety and at its carboxy terminus to a biotin. The enzymatic reactions were performed in 30 to 60 microliter volumes having substrate concentrations in the range of 20 nM to 150 nM. The enzyme concentrations ranged from a few ng/ml to a few mg/ml. The assay buffer was 50 mM Tris-HCL, pH 8.0, 1 mM CaCl2, and 0.1% Tween-20 (v/v). The assay was carried out at 37° C. at varying times from 5 minutes to twelve hours.
Following incubation of the protease and substrate, the reaction mixture was extracted with streptavidin beads provided in molar excess for 15 minutes to remove uncleaved substrate (and cleaved protein fragments lacking the DNA moiety). Following removal of the streptavidin beads, the remaining mixture, containing FAM-labeled DNA fragments of the cleaved caspase-3 substrate, was diluted into GoldenGate™ hybridization buffer (Illumina, Inc., San Diego, Calif.) and hybridized onto a Sentrix® BeadArray Matrix for one hour at room temperature. The BeadArray matrix included nucleic acid probes that were complementary to the FAM-labeled DNA fragments. […]

SMILES: COC(=O)C[C@H](NC(=O)[C@H](C)NC(=O)[C@@H](NC(=O)OCc1ccccc1)C(C)C)C(=O)CF [ZVAD-FMK] (Cbz-Val-Ala-Asp(OMe)-CH2F)
- extent of inhibition of caspase-3 (mean signal intensity vs. time): as the concentration of inhibitor was increased the extent of inhibition was also increased
